Measurements reported in patent US8883841B2, “Oncogenic ras-specific cytotoxic compound and methods of use thereof” (The Board of Regents of the University of Texas System, priority 2005, dated 2014).
“Also recorded” adds a separate entry of the source.

Legend:
[1] = test system: TNFα-mediated NFκB activation; test: Electrophoretic mobility shift assay (EMSA) of NFκB activity; format: cell-based, human; conditions: 12 h, TNFα 1 ng/ml
Procedure: FIGS. 11A-11C Suppression of TNFα-induced NFκB activation. NKκB reporter plasmid assay. T29K cells were transfected with pNFκB-Luc and pCMV-lacZ. 12 h later, the cells were treated with TNFα (1 ng/ml) with or without (FIG. 11A) Oncrasin-1 (10 μM) or (FIG. 11B) Sulindac (10 μm). The luciferase activity was determined at 8 h after the treatment and normalized with beta-gal activity. (FIG. 11C) H460 and T29K cells were treated with DMSO or different concentrations of Oncrasin-1 as indicated for 12 h, with or without TNFα (1 ng/ml). The NFκB activity was analyzed by EMSA.
Suppression of NFκB. In a separated study, the effect of Oncrasin compounds on NF-κB activity was assessed. Nuclear factor-κB (NF-κB)/Rel represents a group of structurally related and evolutionarily conserved transcriptional factors that play critical roles in chronic and acute inflammatory diseases, autoimmune diseases and various type of cancers (Karin and Neriah, 2000; Karin and Karin, 2006; Barnes et al., 1997). In unstimulated cells, most NF-κB/Rel dimers are bound to IκBs and retained in the cytoplasm. Upon a various stimulations, IκBs are phosphorylated and rapidly degraded, releasing NF-κB, which then enters the nucleus and executes transcriptional functions. […] The luciferase activity was determined and normalized for transfection with beta-galactosidase activity. […]

caspase-3 and caspase-8 = test: Western blot for cleavage/activation of caspase-3 and caspase-8 in H460 cells; format: cell-based, human; conditions: 1 μM, 6 to 24 h, listed as Oncrasin-1
Procedure: Apoptosis induction in H460 cells was also analyzed. H460 cells were treated with 1 μM of Oncrasin-1 for 6 to 24 h. Cells treated with DMSO were used as controls. The cell lysates were then used for a western blot assay to detect the cleavage of caspase-3 and caspase-8. […] After treatment with Oncrasin-1, the expression of some molecules involved in Ras signaling pathways was also evaluated. […] Active Raf-1 can be translocated to mitochondria where it executes antiapoptosis signaling by interaction with Bad or other protein substrates. Raf-1 is also a pivotal regulator of endothelial cell survival during angiogenesis. Ablation of Raf-1 renders cells hypersensitive to apoptosis despite normal regulation of extracellular signal-regulated kinases. Thus, it is possible to induce antitumor activity by suppressing raf-1.
Induction of apoptosis by Oncrasin. Many antitumor therapies act by inducing apoptosis in tumor cells (Fisher, 1994; Thompson, 1995). To determine whether the antitumor activity of Oncrasin-1 is due to the suppression of cell proliferation or to cell killing, T29, T29Kt1, and H460 cells were stained with annexin V/propidium iodide (PI) after treatment with Oncrasin-1 at 30 μM (for T29 or T29Kt1 cells) or 3 μM (for H460 cells). […]

Icmt−/− MEF = test: Icmt-dependent growth inhibition, Icmt−/− MEF; format: cell-based, mouse; conditions: up to 100 μM
Excerpt: Oncrasin and Oncrasin Analogs. Chemically, Oncrasin-1 has the same core structure as indole-3-carbinol, a naturally occurring constituent of many plant foods that has been tested for the prevention and treatment of cancer (Brignall, 2001; Kelloff et al., 1996; Chinni et al., 2001). Oncrasin-1 also has structural similarity to sulindac (Taylor et al., 2000; Sun et al., 2002) and lonidamine (Ravagnan et al., 1999; Papaldo et al., 2003), both of which have been evaluated preclinically and clinically for treatment of cancers. […] Oncrasin compounds also bear a indole core structure as the small-molecule inhibitor of isoprenylcysteine carboxylmethyltransferase (Icmt), 2-[5-(3-methylphenyl)-1-octyl-1H-indol-3-yl]acetamide (cysmethynil), which also induces antitumor activity in Ras gene mutant cancer cells (Winter-Vann et al., 2005). […] Both wild-type MEF and Icmt−/− MEF (Bergo et al., 2004) (kindly provided by Dr. S G Young at the University of California, San Francisco) were resistant to Oncrasin-1.

phosphorylated PKCiota = test: Western blot analysis of phosphorylated PKCiota; format: cell-based, human; conditions: 12 h
Procedure: (§1) Ras Signaling Pathway and Molecular Mechanisms of Oncrasin-induced apoptosis. To investigate molecular mechanisms of apoptosis induction by Oncrasin compounds, levels several proteins that are involved in apoptosis and/or involved in Ras signaling pathways were determined, including Bax, Bik, Bc12, Bcl-XL, Raf-1, B-Raf, Akt, Mst1 and atypical protein kinase C (aPKC) zeta and PKCiota. To study which molecules are affected by Oncrasin treatment, T29, T29Kt1 and H460 cells were treated with Oncrasin-1 at an optimal concentration, around IC60 to IC80 for T29Kt1 and H460 cells. Cell lysates were collected 12 h after the treatment and subjected to Western blot analysis.

[2] = test system: Bax, Bik, Bcl-2, Bcl-XL, Mst1, B-Raf, PKCzeta and PKCiota; test: Western blot analysis of apoptosis/Ras signaling proteins; format: cell-based, human; conditions: T29, T29Kt1 and H460 cells, 12 h
Procedure: as §1

## O=Cc1cn(Cc2ccc(Cl)cc2)c2ccccc12 [Oncrasin K001, 1H-Indole-3-carboxaldehyde, 1-[(4-chlorophenyl)methyl]-(9CI)]
[1]
  concentration that effectively suppresses TNFα-mediated NFκB activation, H460 cells: ≥ 1 µM
  concentration that effectively suppresses TNFα-mediated NFκB activation, T29Kt1 cells: ≥ 1 µM
caspase-3 and caspase-8
  activation of caspase-3 and caspase-8: effectively activated caspase-3 and caspase-8; also recorded: Activation of caspase-3 and caspase-8 was detected; also recorded: effectively induce caspase-3 and caspase-8 activation
Icmt−/− MEF
  growth inhibition, Icmt−/− MEF: resistant
Phosphorylated PKCiota
  phosphorylated PKCiota in H460 and T29K cells: increase in phosphorylated PKCiota
  phosphorylated PKCiota in T29 cells: but not in Oncrasin-1 resistant T29 cells
[2]
  levels of Bax, Bik, Bcl-2, Bcl-XL, Mst1, B-Raf, PKCzeta and PKCiota: did not result in noticeable changes
